Measurements as given in patent US7902354B2, “Lapachone compounds and methods of use thereof” (ArQule, Inc., priority 2006, dated 2011).

Experiments:
[1] = tested on: A549 human lung carcinoma cells; test: MTS cell viability assay, A549 human lung carcinoma cells; assay type: cell-based; settings: A549, 4 h compound incubation, MTS, read-out: IC50 Values, Cancerous Cells, Lung A549
[2] = tested on: DLD-1 human colon carcinoma cells; test: MTS cell viability assay, DLD-1 human colon carcinoma cells; assay type: cell-based; settings: DLD-1, 4 h compound incubation, MTS, read-out: IC50 Values, Cancerous Cells, Colon DLD-1
[3] = tested on: DU-145 human prostate carcinoma cells; test: MTS cell viability assay, DU-145 human prostate carcinoma cells; assay type: cell-based; settings: DU-145, 4 h compound incubation, MTS, read-out: IC50 Values, Cancerous Cells, Prostate DU-145
[4] = tested on: K-562 human leukemia cells; test: MTS cell viability assay, K-562 human leukemia cells; assay type: cell-based; settings: K562, K-562, 4 h compound incubation, MTS, read-out: IC50 Values, Cancerous Cells, Leukemia K-562
[5] = tested on: HT-29 human colon carcinoma cells; test: MTS cell viability assay, HT-29 human colon carcinoma cells; assay type: cell-based; settings: 4 h compound incubation, read-out: IC50 Values, Cancerous Cells, Colon HT-29
[6] = tested on: PACA-2 human pancreatic carcinoma cells; test: MTS cell viability assay, PACA-2 human pancreatic carcinoma cells; assay type: cell-based; settings: PACA-2, 4 h compound incubation, MTS, read-out: IC50 Values, Cancerous Cells, Pancreas PACA-2
[7] = tested on: NCM-460 normal colon epithelial cells; test: MTS cell viability assay, NCM-460 normal colon epithelial cells; assay type: cell-based; settings: for IC50: Homo sapiens, NCM460, NCM-460, 4 h compound incubation, MTS, read-out: IC50 Values, Normal Cells, Colon NCM-460; for Fold Selectivity (NCM-460/DLD1): ratio of IC50 NCM-460 / DLD1
[8] = tested on: E2F-1; test: E2F-1 induction in HT-29 cells; assay type: cell-based, human
Text: Another effect of the compounds of the present invention is the induction or elevation of activity (e.g. elevation of the level) of one or more checkpoint molecules (i.e., a member of the E2F family of transcription factors). Studies have shown that β-lapachone induces activation of E2F1 checkpoint pathway in nuclei of cancer cells but not in normal cells, resulting in the arrest of cancer cells in G1 and/or S phase. Several compounds of the present invention were effective in activating the E2F1 checkpoint pathway (e.g. elevation of E2F1 levels), thus causing G1 and/or S phase arrest. Furthermore, the compounds of the present invention have no significant toxic effects on normal cells (See. Table 1). The assays of the present invention as shown in Table 1 and methods of measuring induction of E2F1 activity and elevation of E2F1 levels can be carried out following the descriptions found in Li et al., (2003) Proc Natl Acad Sci USA. 100(5): 2674-8 and U.S. Patent Application Publication No. 2002/0169135, both incorporated herein by reference.

[9] = tested on: HT29 human colon cancer xenograft; test: Colon cancer xenograft model (HT29) in athymic nude mice; assay type: in vivo
Method: Tumors were allowed to grow to approximately 70 mm^3 in size. Animals were randomized into two groups of eight animals per group. […] Drug or vehicle was administered every Monday, Wednesday and Friday for a total of nine doses (qMWFx3). Tumor size was evaluated periodically during the study. For each subject, tumor volume was calculated using the formula (L×W^2)/2 where L and W were the length and width of the tumor, respectively. The arithmetic mean tumor volume was calculated for each treatment group +/− standard error of the mean (SEM). […] Tumors were allowed to grow to approximately 90 mm^3 in size. Animals were randomized into three groups of eight animals per group. […] Drug or vehicle was administered every Monday, Wednesday and Friday for a total of nine doses (qMWFx3). Tumor size was evaluated periodically during the study. For each subject, tumor volume was calculated using the formula (L×W^2)/2 where L and W were the length and width of the tumor, respectively. The arithmetic mean tumor volume was calculated for each treatment group +/− standard error of the mean (SEM). […] Tumors were allowed to grow to approximately 60 mm^3 in size. Animals were randomized into two groups of eight animals per group. At day five post injection, mice with established tumors were treated intraperitoneally with either Compound 182 (40 mg/kg) or vehicle control. Drug or vehicle was administered every Monday, Wednesday and Friday for a total of nine doses (qMWFx3). Tumor size was evaluated periodically during the study. For each subject, tumor volume was calculated using the formula (L×W^2)/2 where L and W were the length and width of the tumor, respectively. The arithmetic mean tumor volume was calculated for each treatment group +/− standard error of the mean (SEM). […] Tumors were allowed to grow to approximately 50 mm^3 in size. Animals were randomized into three groups of five animals per group. At day eight post injection, mice with established tumors were treated intraperitoneally with either Compound 180 (40 mg/kg) or Compound 125 (40 mg/kg) and vehicle control. Drug or vehicle was administered every Monday, Wednesday and Friday for a total of twelve doses (qMWFx4). Tumor size was evaluated periodically during the study. For each subject, tumor volume was calculated using the formula (L×W^2)/2 where L and W were the length and width of the tumor, respectively. The arithmetic mean tumor volume was calculated for each treatment group +/−standard error of the mean (SEM).

[10] = tested on: human cancer cell lines; settings: single agent; read-out: antineoplastic activity against human cancer cell lines (IC50); cited from earlier work
[11] = tested on: normal fresh or proliferating human PBMC; settings: cited from earlier work
[12] = 40 mg/kg intraperitoneally qMWFx4, HT29 xenograft
[13] = 40 mg/kg intraperitoneally qMWFx3, HT29 xenograft
[14] = 32 mg/kg intraperitoneally qMWFx3, HT29 xenograft
[15] = 48 mg/kg intraperitoneally qMWFx3, HT29 xenograft

SMILES	IC50 [1]	IC50 [2]	IC50 [3]	IC50 [4]	IC50 [5]	IC50 [6]	IC50 [7]	Fold Selectivity (NCM-460/DLD1) [7]	E2F-1 Induction (HT-29) [8]	% T/C [9, 12]	reduction of mean tumor volume compared to vehicle treated control [9, 12]	% T/C [9, 13]	reduction of mean tumor volume compared to vehicle treated control [9, 13]	% T/C [9, 14]	reduction of mean tumor volume compared to vehicle treated control [9, 14]	Opt. % T/C [9, 15]	reduction of mean tumor volume compared to vehicle treated control [9, 15]	IC50 [10]	cytotoxic effects on normal fresh or proliferating human PBMC [11]
O=C1C(=O)c2ccccc2C2=C1SCC1(CCN(Cc3ccc(F)cc3)CC1)O2 [Compound 125, 1′-(4-fluorobenzyl)spiro[naphtho[1,2-b][1,4]oxathiine-2,4′-piperidine]-5,6-dione]	9570 nM	1710 nM	5060 nM	3740 nM	4950 nM	2500 nM	9750 nM	5.7	Yes	46.2%	57.8%	–	–	–	–	–	–	–	–
O=C1C(=O)c2ccccc2C2=C1SCC1(CCN(C[C@H](O)COc3ccc(Cl)cc3)CC1)O2 [Compound 182, 1′-[(2S)-3-(4-chlorophenoxy)-2-hydroxypropyl]spiro[naphtho[1,2-b][1,4]oxathiine-2,4′-piperidine]-5,6-dione]	6450 nM	1300 nM	1280 nM	3250 nM	2070 nM	1330 nM	11200 nM	8.6	Yes	–	–	44.8%	55.2%	–	–	–	–	–	–
CC(C)(C)c1ccc(OC[C@@H](O)CN2CCC3(CC2)CSC2=C(O3)c3ccccc3C(=O)C2=O)cc1 [Compound 184, 1′-[(2S)-3-(4-tert-butylphenoxy)-2-hydroxypropyl]spiro[naphtho[1,2-b][1,4]oxathiine-2,4′-piperidine]-5,6-dione]	5850 nM	2580 nM	1650 nM	5340 nM	3670 nM	1710 nM	27800 nM	10.8	Yes	–	–	–	–	29.8%	70.2%	–	–	–	–
CC1(C)CCC2=C(O1)c1ccccc1C(=O)C2=O [β-lapachone, 3,4-dihydro-2,2-dimethyl-2H-naphtho[1,2-b]pyran-5,6-dione]	–	–	–	–	–	–	–	–	–	–	–	–	–	–	–	–	–	1000 to 10000 nM	No cytotoxic effects

The next lines start with results.

IC50 [1]	IC50 [2]	IC50 [3]	IC50 [4]	IC50 [5]	IC50 [6]	SMILES	IC50 [7]	Fold Selectivity (NCM-460/DLD1) [7]	E2F-1 Induction (HT-29) [8]	% T/C [9, 12]	reduction of mean tumor volume compared to vehicle treated control [9, 12]	% T/C [9, 13]	reduction of mean tumor volume compared to vehicle treated control [9, 13]	% T/C [9, 14]	reduction of mean tumor volume compared to vehicle treated control [9, 14]	Opt. % T/C [9, 15]	reduction of mean tumor volume compared to vehicle treated control [9, 15]	IC50 [10]	cytotoxic effects on normal fresh or proliferating human PBMC [11]
3530 nM	708 nM	1480 nM	1460 nM	2200 nM	958 nM	O=C1C(=O)c2ccccc2C2=C1SCC1(CCN(C[C@H](O)COc3ccc(F)cc3)CC1)O2 [Compound 180, 1′-[(2S)-3-(4-fluorophenoxy)-2-hydroxypropyl]spiro[naphtho[1,2-b][1,4]oxathiine-2,4′-piperidine]-5,6-dione]	3570 nM	5.0	Yes	58.3%	41.7%	–	–	–	–	–	–	–	–
5500 nM	1500 nM	2100 nM	2300 nM	6500 nM	1500 nM	O=C1C(=O)c2ccccc2C2=C1SCC1(CCN(C[C@H](O)Cc3ccccc3)CC1)O2 [Compound 186, 1′-[(2R)-2-hydroxy-3-phenylpropyl]spiro[naphtho[1,2-b][1,4]oxathiine-2,4′-piperidine]-5,6-dione]	6800 nM	4.7	YES	–	–	–	–	50%	50%	–	–	–	–
5100 nM	2100 nM	3000 nM	2700 nM	5500 nM	1900 nM	O=C1C(=O)c2ccccc2C2=C1SCC1(CCN(C[C@@H](O)Cc3ccccc3)CC1)O2 [Compound 187, 1′-[(2S)-2-hydroxy-3-phenylpropyl]spiro[naphtho[1,2-b][1,4]oxathiine-2,4′-piperidine]-5,6-dione]	8100 nM	–	YES	–	–	–	–	–	–	38%	62%	–	–
